Results reported in the NIST ThermoML archive (doi:10.1016/j.fluid.2016.07.034).

Experiment: molar heat capacity at constant pressure
Conditions: Flow calorimetry

CCF [fluoroethane]
Conditions	molar heat capacity at constant pressure [J/K/mol]
303.42 K, 1340 kPa, Liquid	107.27
303.47 K, 1930 kPa, Liquid	106.74
303.48 K, 6470 kPa, Liquid	102.68
303.49 K, 9530 kPa, Liquid	100.86
303.5 K, 2520 kPa, Liquid	106.24
303.5 K, 8030 kPa, Liquid	101.83
303.5 K, 10100 kPa, Liquid	100.8
303.51 K, 7100 kPa, Liquid	102.32
303.51 K, 11050 kPa, Liquid	100.2
303.52 K, 5200 kPa, Liquid	103.84
303.52 K, 8440 kPa, Liquid	101.93
303.52 K, 10520 kPa, Liquid	100.64
303.52 K, 11560 kPa, Liquid	100.42
303.53 K, 3000 kPa, Liquid	106.02
303.53 K, 5540 kPa, Liquid	103.57
303.53 K, 5980 kPa, Liquid	103.24
303.53 K, 7520 kPa, Liquid	102.26
303.53 K, 9130 kPa, Liquid	101.37
303.54 K, 12050 kPa, Liquid	100.01
303.55 K, 3510 kPa, Liquid	105.63
303.55 K, 4550 kPa, Liquid	104.88
303.57 K, 4010 kPa, Liquid	105.42
313.31 K, 2010 kPa, Liquid	110.61
313.33 K, 3080 kPa, Liquid	109.26
313.35 K, 2560 kPa, Liquid	110.04
313.35 K, 3500 kPa, Liquid	108.56
313.36 K, 4000 kPa, Liquid	108.09
313.37 K, 4510 kPa, Liquid	107.49
313.37 K, 7030 kPa, Liquid	104.99
313.38 K, 8490 kPa, Liquid	103.71
313.38 K, 9510 kPa, Liquid	102.92
313.39 K, 5070 kPa, Liquid	107.08
313.39 K, 7490 kPa, Liquid	104.67
313.4 K, 9090 kPa, Liquid	103.61
313.4 K, 10010 kPa, Liquid	102.8
313.41 K, 1510 kPa, Liquid	112.39
313.41 K, 6080 kPa, Liquid	106.37
313.42 K, 5490 kPa, Liquid	106.99
313.42 K, 7980 kPa, Liquid	104.69
313.42 K, 10490 kPa, Liquid	102.75
313.43 K, 6510 kPa, Liquid	106.03
313.43 K, 10980 kPa, Liquid	102.52
313.47 K, 11470 kPa, Liquid	102.55
315.33 K, 1020 kPa, Gas	77.84
315.39 K, 1110 kPa, Gas	80.21
315.56 K, 1220 kPa, Gas	83.09
324.11 K, 2050 kPa, Liquid	115.84
324.13 K, 2570 kPa, Liquid	114.7
324.13 K, 8110 kPa, Liquid	105.47
324.14 K, 5980 kPa, Liquid	108.6
324.15 K, 3000 kPa, Liquid	113.84
324.15 K, 8550 kPa, Liquid	105.2
324.16 K, 4060 kPa, Liquid	111.82
324.16 K, 6470 kPa, Liquid	107.92
324.16 K, 7520 kPa, Liquid	106.39
324.17 K, 5510 kPa, Liquid	109.38
324.17 K, 10040 kPa, Liquid	103.35
324.18 K, 3500 kPa, Liquid	113.06
324.18 K, 4510 kPa, Liquid	111.09
324.19 K, 7020 kPa, Liquid	107.27
324.19 K, 9040 kPa, Liquid	104.9
324.19 K, 10510 kPa, Liquid	103.17
324.19 K, 11010 kPa, Liquid	102.91
324.21 K, 5030 kPa, Liquid	110.51
324.21 K, 9450 kPa, Liquid	104.56
324.21 K, 11610 kPa, Liquid	102.46
324.22 K, 12030 kPa, Liquid	102.24
325.23 K, 1300 kPa, Gas	79.4
325.26 K, 1210 kPa, Gas	77.2
325.57 K, 1110 kPa, Gas	75.5
333.86 K, 2520 kPa, Liquid	124.88
333.92 K, 3010 kPa, Liquid	123.2
333.97 K, 5000 kPa, Liquid	117.16
333.97 K, 5500 kPa, Liquid	115.91
333.98 K, 5990 kPa, Liquid	114.8
333.99 K, 3510 kPa, Liquid	121.92
333.99 K, 4620 kPa, Liquid	118.27
333.99 K, 9500 kPa, Liquid	108.39
334 K, 4070 kPa, Liquid	120.01
334 K, 6530 kPa, Liquid	113.92
334.01 K, 10060 kPa, Liquid	108
334.02 K, 7050 kPa, Liquid	112.82
334.03 K, 8960 kPa, Liquid	109.42
334.03 K, 10520 kPa, Liquid	107.4
334.03 K, 11040 kPa, Liquid	107.08
334.05 K, 7490 kPa, Liquid	112.09
334.05 K, 8350 kPa, Liquid	110.82
334.05 K, 11630 kPa, Liquid	106.69
334.07 K, 12280 kPa, Liquid	106.31
334.76 K, 1410 kPa, Gas	77.78
335.09 K, 1600 kPa, Gas	82.79
335.23 K, 1510 kPa, Gas	80.11
335.46 K, 1300 kPa, Gas	75.24
335.63 K, 1210 kPa, Gas	74.2
343.4 K, 2840 kPa, Liquid	135.92
343.44 K, 3020 kPa, Liquid	134.94
343.77 K, 3540 kPa, Liquid	133.68
343.84 K, 4040 kPa, Liquid	131.08
343.88 K, 4520 kPa, Liquid	129.17
343.89 K, 5970 kPa, Liquid	123.05
343.9 K, 6530 kPa, Liquid	121.47
343.9 K, 7040 kPa, Liquid	120.17
343.9 K, 7540 kPa, Liquid	118.86
343.91 K, 5560 kPa, Liquid	124.9
343.91 K, 8070 kPa, Liquid	117.76
343.91 K, 8530 kPa, Liquid	116.74
343.92 K, 9010 kPa, Liquid	115.78
343.92 K, 9480 kPa, Liquid	114.8
343.92 K, 10010 kPa, Liquid	113.86
343.92 K, 10500 kPa, Liquid	112.99
343.93 K, 5100 kPa, Liquid	126.98
343.93 K, 11010 kPa, Liquid	112.27
343.96 K, 11570 kPa, Liquid	111.8
343.99 K, 12130 kPa, Liquid	111.22
344.36 K, 2000 kPa, Gas	89.95
345.01 K, 1810 kPa, Gas	82.66
345.19 K, 1220 kPa, Gas	72.72
345.35 K, 1600 kPa, Gas	77.74
345.47 K, 1420 kPa, Gas	74.9
353.68 K, 3480 kPa, Liquid	157.19
353.77 K, 8480 kPa, Liquid	121.76
353.78 K, 7950 kPa, Liquid	123.23
353.79 K, 6470 kPa, Liquid	128.91
353.79 K, 9090 kPa, Liquid	120.56
353.79 K, 10010 kPa, Liquid	118.76
353.8 K, 7530 kPa, Liquid	124.7
353.8 K, 9570 kPa, Liquid	119.62
353.8 K, 10480 kPa, Liquid	117.97
353.81 K, 6000 kPa, Liquid	131.53
353.81 K, 7130 kPa, Liquid	126.37
353.81 K, 11040 kPa, Liquid	117.35
353.82 K, 4030 kPa, Liquid	149.07
353.82 K, 5500 kPa, Liquid	134.57
353.84 K, 11540 kPa, Liquid	116.89
353.85 K, 5030 kPa, Liquid	138.32
353.86 K, 4500 kPa, Liquid	143.57
353.87 K, 11950 kPa, Liquid	116.16
355.25 K, 1910 kPa, Gas	81.51
355.27 K, 1520 kPa, Gas	75.85
355.27 K, 1700 kPa, Gas	78.58
355.27 K, 2110 kPa, Gas	85.11
355.28 K, 1310 kPa, Gas	73.7
355.3 K, 1130 kPa, Gas	71.61
355.31 K, 2610 kPa, Gas	99.72
355.33 K, 2820 kPa, Gas	109.04
355.48 K, 2360 kPa, Gas	90.82
355.52 K, 2590 kPa, Gas	97.73
363.33 K, 4330 kPa, Liquid	193.61
363.59 K, 7000 kPa, Liquid	139.97
363.59 K, 7500 kPa, Liquid	136.22
363.59 K, 8480 kPa, Liquid	130.33
363.6 K, 8030 kPa, Liquid	132.67
363.61 K, 9520 kPa, Liquid	125.95
363.61 K, 10000 kPa, Liquid	123.85
363.62 K, 6030 kPa, Liquid	150.44
363.62 K, 6520 kPa, Liquid	144.76
363.63 K, 8990 kPa, Liquid	128.17
363.66 K, 5490 kPa, Liquid	159.6
363.66 K, 10580 kPa, Liquid	122.57
363.68 K, 11000 kPa, Liquid	121.51
363.7 K, 4990 kPa, Liquid	171.83
363.71 K, 11510 kPa, Liquid	120.57
363.75 K, 12010 kPa, Liquid	119.55
365.28 K, 2190 kPa, Gas	82.06
365.28 K, 2400 kPa, Gas	85.63
365.29 K, 2010 kPa, Gas	79.35
365.3 K, 1810 kPa, Gas	76.69
365.33 K, 2600 kPa, Gas	89.76
365.34 K, 1600 kPa, Gas	74.44
365.39 K, 1200 kPa, Gas	71.16
365.39 K, 1410 kPa, Gas	72.82
365.42 K, 2800 kPa, Gas	94.54
365.46 K, 2990 kPa, Gas	99.69
365.54 K, 3400 kPa, Gas	118.14
365.75 K, 3200 kPa, Gas	107.31
373.37 K, 5540 kPa, Liquid	218.6
373.47 K, 9520 kPa, Liquid	134.79
373.48 K, 9010 kPa, Liquid	138.16
373.53 K, 8500 kPa, Liquid	142.08
373.53 K, 9990 kPa, Liquid	132.61
373.53 K, 11480 kPa, Liquid	126.08
373.54 K, 8000 kPa, Liquid	146.44
373.55 K, 6030 kPa, Liquid	187.59
373.56 K, 6990 kPa, Liquid	159.83
373.56 K, 10990 kPa, Liquid	128.66
373.57 K, 7500 kPa, Liquid	151.89
373.58 K, 6510 kPa, Liquid	170.77
373.58 K, 10550 kPa, Liquid	130.44
383.1 K, 6560 kPa, Liquid	239.16
383.57 K, 7020 kPa, Liquid	204.1
383.71 K, 10040 kPa, Liquid	140.17
383.71 K, 10550 kPa, Liquid	136.16
383.74 K, 9490 kPa, Liquid	145.93
383.74 K, 11270 kPa, Liquid	132.02
383.78 K, 7490 kPa, Liquid	182.33
383.81 K, 9090 kPa, Liquid	151.38
383.86 K, 7980 kPa, Liquid	172.97
383.87 K, 8520 kPa, Liquid	160.93
383.88 K, 12030 kPa, Liquid	129.42
